Measured values as given in patent US9381182B2, “Anthranilic acid derivatives: novel inhibitors of advanced glycation end-products (AGEs) formation” (priority 2013, dated 2016).
Like-named read-outs stand apart in the source and are kept apart here.

How the values were obtained:
[1] = MTT-based cytotoxicity assay; conditions: mouse, 3T3 mouse fibroblast cells, 3T3 cell-line, read-out: Cytotoxicity % Inhibition
Excerpt: Many studies have highlighted the contribution of AGEs in disease states and primarily investigated their deleterious effects and their possible mechanism of actions. Therefore, there is a need of synthesis and investigation of novel antiglycation agents, which are devoid of any adverse effects, may present a therapeutic approach for the delaying and treatment of premature aging and vascular abnormalities in diabetic patients. In the current study, we explored the novel antiglycation agents (1-18), which are potent inhibitors against the glycation process, and belong to anthranilic acid derivatives. The inhibitors were identified by using high throughput screening method, fluorescence-based antiglycation assay (see Table-1). The cytotoxicity studies were performed against mouse fibroblast cell-line (3T3 Cell-line) by employing MTT-based cytotoxicity assay. The mechanistic studies were also conducted to evaluate the effect of novel antiglycation inhibitors on AGEs-induced intracellular reactive oxygen species generation (ROS) and associated impaired proliferation in rat hepatocytes via dichlorofluorescin diacetate (DCFH-DA) and MTT-based cytotoxicity assay, respectively. Previously, these novel antiglycation inhibitors were known for anticancer and anti-inflammatory activities (Congiu C, et al., 2005).

[2] = test system: rat hepatocytes (CC1-Cell line); test: AGE-mediated reduced growth of rat hepatocytes, MTT assay; format: cell-based; conditions: for Absorbance (Average): 540 nm
Excerpt: Methodology: Normal, rat hepatocytes (CC1-Cell line) was purchased from ATCC, Manassas, Va., USA. MEM (Minimum Essential Medium) with L-glutamine, trypsin-EDTA, sodium bicarbonate and penicillin-streptomycin were obtained from Sigma, St. Louis, Mo., USA. 96-well tissue culture treated, sterile, round bottom plates were acquired from Thermo Fisher Scientific, Waltham, Mass., USA.
All the treatment with the AGEs and the test compound were done in SFM (serum free medium), and Triton X-100 treated hepatocytes were used as a blank, while untreated normal cells were used as a control.
Determination of Cellular Proliferation: At the end of the incubation, the sample solution was removed and MTT-dye ((2 mg/mL, 50 μL) was added to each well. The final reaction volume (200 μL) was reconstituted by MEM (serum free-Minimum essential media). The plate was incubated for 4 hours at 37° C. in 5% CO2 containing incubator. Following incubation, the serum free medium was removed and the crystals were dissolved by adding DMSO (100 μL) in each well.
Absorbance Detection: The absorbance of the colored solution was measured at 540 nm by Spectra Max Spectrophotometer, Applied Biosystems, CA, USA.
Where, • Test Compound=Novel anthranilic acid derivative • Blank=Hepatocytes treated with Triton X-100 • Control=Untreated normal rat hepatocytes

[3] = target: T1, Human serum albumin (HSA) glycation by fructose (AGE-HSA) (Homo sapiens, UniProt P02768); test: In-vitro antiglycation activity against HSA glycation (fluorescence-based antiglycation assay); format: biochemical; conditions: for inhibition at 1000 µM: read-out: Antiglycation Activity % Inhibition
T1 construct: purchased Sigma Aldrich, St. Louis, Mo., USA
T1 sequence (P02768 25-609): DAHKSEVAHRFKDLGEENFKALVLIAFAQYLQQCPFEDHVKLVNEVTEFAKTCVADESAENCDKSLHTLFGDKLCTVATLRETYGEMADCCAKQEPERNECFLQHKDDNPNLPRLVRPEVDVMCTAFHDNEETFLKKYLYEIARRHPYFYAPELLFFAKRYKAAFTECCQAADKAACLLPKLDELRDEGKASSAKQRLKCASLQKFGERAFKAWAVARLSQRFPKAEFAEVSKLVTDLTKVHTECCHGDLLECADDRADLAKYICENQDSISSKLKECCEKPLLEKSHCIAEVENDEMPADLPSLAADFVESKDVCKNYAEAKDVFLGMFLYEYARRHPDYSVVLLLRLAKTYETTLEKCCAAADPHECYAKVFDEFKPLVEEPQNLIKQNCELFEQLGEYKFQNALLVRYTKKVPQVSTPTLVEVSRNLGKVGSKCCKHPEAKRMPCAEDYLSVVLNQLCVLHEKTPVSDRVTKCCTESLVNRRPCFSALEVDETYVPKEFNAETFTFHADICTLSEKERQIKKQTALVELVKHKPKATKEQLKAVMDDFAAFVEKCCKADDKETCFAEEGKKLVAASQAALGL
Procedure: Methodology: Human serum albumin (HSA) free from essential fatty acids and rutin were obtained from Sigma Aldrich, St. Louis, Mo., USA. D-fructose, sodium azide (NaN3) and dimethyl sulfoxide (DMSO) were acquired from Merck, Darmstadt, Germany. All solutions were prepared in sterile environment in deionized water at room temperature.
Assay Method: The assay was performed according the protocol of (Sattarahmady N, et al., 2007) with a little modification. […] Each sample solution (200 μL, final reaction volume) in triplicate loaded a 96-wll black fluorescence plate and was incubated for a week at 37° C. in an incubator.

[4] = test system: rat hepatocytes (CC1-Cell line); test: Fructose-derived AGE-mediated intracellular ROS generation, DCFH-DA technique; format: cell-based; conditions: for Fluorescence (Average), ROS production: no test compound
Procedure: Methodology: DCFH-DA (Dichlorofluorescin diacetate), H2O2 (Hydrogen peroxide), DMSO (Dimethyl sulfoxide) and PBS (Phosphate buffer saline) were obtained from Sigma, St. Louis, Mo., USA. 96-well black fluorescence plates (Tissue culture treated) were purchased from Thermo Fisher Scientific, Waltham, Mass., USA.
Assay Method: Briefly, rat hepatocytes (CC1-Cell line, 6×10^4 cells/mL) were loaded on a black fluorescence 96-well tissue culture treated plate for 24 hours at 37° C. in an incubator, containing 5% CO2. The cells were serum starved for another 24 hours by adding serum free medium-MEM (minimum essential medium) prior to treatment with fructose-derived AGE and the test compounds, anthranilic acid derivatives. Initially the cells were treated with non fluorescent probe, DCFH-DA (10 μM) in the dark for 45 mins. Following incubation the cells were washed twice with 1×PBS and were treated with different concentrations of the AGEs, such as 0, 50, 100, and 200 μg/mL, to evaluate the AGEs influence on the generation of intracellular ROS in a concentration dependent manner. The cells were then treated with the test compounds (novel anthranilic acid derivatives) at various concentrations 24, 33, and 49 μM, co-incubated with the AGE (200 μg/mL) for 24 hours at 37° C. At the end of the incubation, just before 1 hour, the cells were incubated with H2O2 (0.5%) as a control.
Fluorescence Detection: The intensity of green fluorescence, which is emitted upon the oxidation of the probe in the presence of intracellular ROS, is measured at the excitation and emission wavelength of 490 nm and 520 nm, respectively, by Spectra Max Spectrophotometer, Applied Biosystems, CA, USA.
Where, • Test compound=anthranilic acid derivative • Blank=Untreated normal rat hepatocytes • Control=Hepatocytes treated with 0.5% H2O2

[5] = compound 24 μM, co-incubated with AGEs 200 μg/mL, 24 hours
[6] = compound 33 μM, co-incubated with AGEs 200 μg/mL, 24 hours
[7] = compound 49 μM, co-incubated with AGEs 200 μg/mL, 24 hours
[8] = read-out: Antiglycation Activity IC50 ± SEM

Compound | cytotoxicity [1] | inhibition at 1000 µM [3] | IC50 [3] | other results
O=C(O)c1ccccc1Nc1ccc([N+](=O)[O-])cc1[N+](=O)[O-] [Compound 1, 2-(2,4-Dinitroanilino)benzoic acid] | 1.5% | 90% |  | inhibition at 24 µM ([2]; Rattus norvegicus, Hepatocyte, 24 h, compound 24 μM, co-incubated with AGEs 200 μg/mL, 24 hours, read-out: Percentage Inhibition (growth inhibition of hepatocytes)): 12%; inhibition at 33 µM ([2]; Rattus norvegicus, Hepatocyte, 24 h, compound 33 μM, co-incubated with AGEs 200 μg/mL, 24 hours, read-out: Percentage Inhibition (growth inhibition of hepatocytes)): 18.5%; inhibition at 49 µM ([2]; Rattus norvegicus, Hepatocyte, 24 h, compound 49 μM, co-incubated with AGEs 200 μg/mL, 24 hours, read-out: Percentage Inhibition (growth inhibition of hepatocytes)): 18.8%; Percentage Inhibition (growth inhibition of hepatocytes) ([2]; compound 24 μM, co-incubated with AGEs 200 μg/mL, 24 hours, 24 µM): 12.3%; Absorbance (Average) [2, 5]: 1.15; cytotoxic effect of the AGEs on the hepatocytes in presence of compound (in words) ([2]; compound 33 μM, AGEs 200 μg/mL): no cytotoxic effect; Absorbance (Average) [2, 6]: 1.09; reducing the toxic effects of the AGEs on the hepatocytes proliferation (in words) ([2]; compound 49 μM, AGEs 200 μg/mL): safe and effective; Absorbance (Average) [2, 7]: 1.08; IC50 [3, 8]: 67.2 ± 0.004 µM; inhibition at 24 µM ([4]; Rattus norvegicus, Hepatocyte, compound 24 μM, co-incubated with AGEs 200 μg/mL, 24 hours, read-out: Percentage Inhibition of AGE-induced intracellular ROS generation): 93.4%; inhibition at 33 µM ([4]; Rattus norvegicus, Hepatocyte, compound 33 μM, co-incubated with AGEs 200 μg/mL, 24 hours, read-out: Percentage Inhibition of AGE-induced intracellular ROS generation): 86.9%; inhibition at 49 µM ([4]; Rattus norvegicus, Hepatocyte, compound 49 μM, co-incubated with AGEs 200 μg/mL, 24 hours, read-out: Percentage Inhibition of AGE-induced intracellular ROS generation): 63.2%; Fluorescence (Average) [4, 5]: 90.6; Fluorescence (Average) [4, 6]: 101.2; inhibitory influence on the intracellular generation of ROS (in words) ([4]; compound 49 μM, AGE 200 μg/mL): moderate inhibitory influence; Fluorescence (Average) [4, 7]: 139.5
O=C(O)c1ccccc1Nc1ccc(Cl)cc1[N+](=O)[O-] [Compound 2, 2-(4-Chloro-2-nitroanilino)benzoic acid] | 5.6% | 82% | 137 ± 0.002 µM | 
COc1cc(OC)c(Nc2ccccc2C(=O)O)cc1Cl [Compound 3, 2-(5-Chloro-2,4-dimethoxyanilino)benzoic acid] | 22.4% | 75.1% | 266 ± 0.016 µM | 
O=C(O)c1ccccc1Nc1ccc(Cl)c([N+](=O)[O-])c1 [Compound 4, 2-(4-Chloro-3-nitroanilino)benzoic acid] | 19.7% | 68.9% | 266 ± 0.01 µM | 
O=C(O)c1ccccc1Nc1ccc(Cl)cc1 [Compound 5, 2-(4-Chloroanilino)benzoic acid] | 41.3% | 62% | 298 ± 0.015 µM | 
O=C(O)c1ccccc1Nc1ccccc1Cl [Compound 6, 2-(2-Chloroanilino)benzoic acid] | 0.9% | 68% | 426 ± 0.017 µM | 
O=C(O)c1ccccc1Nc1cc(Cl)cc([N+](=O)[O-])c1 [Compound 7, 2-(3-Chloro-5-nitroanilino)benzoic acid] | 13% | 84.4% | 166 ± 0.017 µM | 
Cc1ccc(Cl)cc1Nc1ccccc1C(=O)O [Compound 8, 2-(5-Chloro-2-methylanilino)benzoic acid] | 3.2% | 69% | 408 ± 0.03 µM | 
O=C(O)c1ccccc1Nc1cc([N+](=O)[O-])ccc1Cl [Compound 9, 2-(2-Chloro-5-nitroanilino)benzoic acid] | 3% | 79.4% | 314 ± 0.01 µM | 
O=C(O)c1ccccc1Nc1ccc(F)cc1F [Compound 10, 2-(2,4-Difluoroanilino)benzoic acid] | 1.1% | 63% | 558 ± 0.066 µM | 
O=C(O)c1ccccc1Nc1ccc(Cl)c(Cl)c1 [Compound 11, 2-(3,4-Dichloroanilino)benzoic acid] | 40.1% | 62% | 597 ± 0.021 µM | 
CCCCc1ccc(Nc2ccccc2C(=O)O)cc1 [Compound 12, 2-(4-Butylanilino)benzoic acid] | 17.3% | 70% | 407 ± 0.01 µM | 
Cc1cc(C)cc(Nc2ccccc2C(=O)O)c1 [Compound 13, 2-(3,5-Dimethylanilino)benzoic acid] | 4.8% | 65% | 457 ± 0.019 µM | 
O=C(O)c1ccccc1Nc1cc(Cl)c([N+](=O)[O-])cc1Cl [Compound 14, 2-(2,5-Dichloro-4-nitroanilino)benzoic acid] | 29.6% | 88.8% | 84.8 ± 0.003 µM | 
O=C(O)c1ccccc1Nc1cc(Cl)ccc1Cl [Compound 15, 2-(2,5-Dichloroanilino)benzoic acid] | 1.6% | 62% | 678 ± 0.047 µM | 
O=C(O)c1ccccc1Nc1cccc([N+](=O)[O-])c1 [Compound 16, 2-(3-Nitroanilino)benzoic acid] | 4.1% | 80% |  | IC50 [3, 8]: 264 ± 0.013 µM
O=C(O)c1ccccc1Nc1cc(Cl)ccc1[N+](=O)[O-] [Compound 17, 2-(5-Chloro-2-nitroanilino)benzoic acid] | 1.5% | 78% | 150 ± 0.001 µM | 
COc1cccc(Nc2ccccc2C(=O)O)c1 [Compound 18, 2-(3-Methoxyanilino)benzoic acid] | 7.1% | 71% | 398 ± 0.007 µM | 
C[C@@H]1O[C@@H](OC[C@H]2O[C@@H](Oc3c(-c4ccc(O)c(O)c4)oc4cc(O)cc(O)c4c3=O)[C@H](O)[C@@H](O)[C@@H]2O)[C@H](O)[C@H](O)[C@H]1O [rutin, reference compound] |  |  |  | IC50 [3, 8]: 70 ± 0.5 µM
AGEs |  |  |  | Fluorescence (Average), ROS production ([4]; 50 μg/mL, 24 hours): 114.4; Fluorescence (Average), ROS production ([4]; 100 μg/mL, 24 hours): 135.3; Fluorescence (Average), ROS production ([4]; 200 μg/mL, 24 hours): 201.9
